In patent US6159733A, “Method for photoinactivating malignant cells” (priority 1996, dated 2000):
Entries after “also recorded” stand apart in the source; their conditions may differ.

Legend:
[1] = system: pluripotent stem cells (Ly-5.1 donor BM in Ly-5.2 mice); test: Bone marrow transplantation and chimerism assay; assay type: in vivo; details: for mice died two months after transplant: sub-lethally irradiated
Text: Animals. C57B1/6 (Ly-5.2) and B6SJ-cd45 ^b pep 3^b /BOY J (Ly-5.1), were obtained from The Jackson Laboratories (Bar Harbor, Me.) and were maintained in the animal facility of the New York Blood Center. After gamma-irradiation, the animals were housed in microisolator cages and provided with autoclaved food and autoclaved acidified water (pH=3) ad libitum. Preparation of bone marrow cell suspensions--Ly-5.1 mice were used as the source of donor BM. Mice (8-10 weeks old) were killed and the BM was harvested by flushing the femoral shafts with Hank's balanced salt solution (HBSS), pH 7.4. The cell suspensions were centrifuged, washed once and the cells were finally resuspended in HBSS--10% vol/vol fetal bovine serum (FBS, Gemini Bioproducts Inc., Calabasas, Calif.).
Photosensitization. Aliquots of a 1.87 mM Pc 4 (kindly provided by Dr. M. E. Kenney) stock solution in dimethyl sulfoxide were kept at -80° C. in autoclaved brown glass vials. Immediately prior to the photosensitization, Pc4 was thawed and diluted in dimethyl formamide to yield a 10 μM working solution. […] Pc 4 was used at 15 nM throughout the experiments.
BM and cell line samples, were incubated with 15 nM Pc 4 for two hours at 37° C. at cell concentrations of 1.5×10^7 cells/mL. Aliquots of 1.5 mL were transferred to 24-well plates; separate plates were used for each sample.
Photoinactivation. The light source used was a filtered xenon short arc lamp (Versa-Light, Model UV-R6G, Medic Lightech, Ltd., Haifa, Israel). It was used to deliver red light (λ 600-700 nm) to the sensitized cells. After a 20 minute warm up period of the instrument, the distance from the light source to the bottom of the 24-well plate was adjusted to obtain a fluence rate of 26.6 mW/cm^2, as measured with a radiometer (Model IL 1350, International Light, Newburyport, Mass.). Samples were placed under the light source and were stirred during the irradiations. Before and after the irradiations, samples were kept in the dark.
Bone marrow transplantation and chimerism assay. Two month old Ly-5.2 mice were used as recipients in the BM reconstitution assays. […] The irradiated recipient Ly-5.2 mice were divided into six groups. The mice in these groups received either HBSS, untreated control bone marrow, or Pc 4-sensitized BM that was photoirradiated with 0, 6, 12 or 18 J/cm^2, respectively. Each mouse received 250,000 donor BM cells.
Six months after transplantation, peripheral blood was obtained by tail-vein puncture and 40 μL samples were aliquoted into tubes that contained the following antibody cocktails. The first tube contained 4 μL of phycoerythrin (PE) conjugated anti-Ly-5.1 antibody (CD45.1, kind gift from Dr. JoseCarlos Segovia) and 1 μL of fluorescein (FITC) conjugated anti-B220 antibody (B cells; Pharmingen, San Diego, Calif.), the second tube contained 4 μL anti-Ly-5.1^PE and 1 μL of anti-CD3^FITC (T cells; Pharmingen), and the third tube contained 4 μL anti-Ly-5.1^PE and 1 μL of anti-Gr-1^FITC (granulocytes; Pharmingen). Following a 20 minute incubation at room temperature, 2 mL of FACS Lysing Solution (Becton Dickinson (BD), San Jose, Calif.) was added to each sample followed by gentle mixing. After 10 minutes the samples were centrifuged and the pellets were resuspended in 3 mL PBS. After centrifugation, the washed pellets were resuspended in 2% vol/vol formalin--PBS pH 7.4 and the samples were analyzed by flow cytometry within 3 hours after staining.

[2] = system: pluripotent stem cells (c-kit^+,Sca-1^+); test: Uptake of Pc 4, flow cytometry; assay type: cell-based, murine; details: for Pc 4 content / Pc 4 content per cell volume: 15 nM
Description: (§1) In mixing experiments, aliquots of Ly-5.2 BM and cell lines samples were mixed at different ratios. The combined cell concentration of each sample was 1.5×10^7 cells/mL. […] The cell lines were stained with anti-Ly-5.1^FITC. This treatment allowed clear resolution of the relatively small ABE-8.1/2 and BC3A cells from the bone marrow granulocytes. Immediately prior to the analyses, propidium iodide (PI, 0.5 μg/mL) was added to the samples to allow exclusion of dead cells (PI^+) from the analyses. The samples were analyzed in a FACStar^PLUS (BD) that was equipped with an argon ion laser tuned to 488 nm (200 mW) and a dye laser tuned to 610 nm (300 mW). FITC, PE, PI and Pc 4 fluorescence emissions were collected through 530/30, 575/42, 660/10, 670/10 nm band pass filters, respectively.
(§2) Cell size. Microscopic measurements of at least 20 cells were performed using a calibrated micrometer. To determine the cell size of the BM progenitor subsets, the c-kit^+,Sca-1^- and c-kit^+,Sca-1^+ fractions were sorted. The sorted cells were centrifuged and the pellets were resuspended in a 20 μl of HBBS. Samples were deposited onto microscope slides and covered with a cover slip. Cell diameters of 7.7±0.2 (c-kit^+,Sca-1^+), 8.4±0.3 (c-kit^+,Sca-1^-), 10.9±0.2 (BC3A), 11.1±0.2 (ABE-8.1/2), 13.0±0.3 (L1210), 14.2±0.3 (P815), 15.0±0.4 μm (WEHI-3) were obtained.

[3] = system: progenitor cells (c-kit^+,Sca-1^-); test: Uptake of Pc 4, flow cytometry; assay type: cell-based, murine
Description: as §1, §2

[4] = system: WEHI-3 cells; test: Uptake of Pc 4 in mixtures of BM and cell lines; assay type: cell-based, murine
Description: as §1

[5] = system: parasites; details: blood products; cited from earlier work
[6] = system: V79; details: cited from earlier work
[7] = 1.5×10^6 cells/ml during incubation
[8] = 1.5×10^7 cells/ml during incubation
[9] = 15 nM, 1.5×10^6 cells/ml during incubation
[10] = 15 nM, 1.5×10^7 cells/ml during incubation

## CN(C)CCC[Si](C)(C)O[Si]1(O)n2c3c4ccccc4c2N=C2N=C(N=c4c5ccccc5c(n41)=NC1=NC(=N3)c3ccccc31)c1ccccc12 (stereo not shown) [Pc 4, hydroxysiloxy-dimethylpropyl-N-dimethyl silicon phthalocyanine]
[1]; 1.5×10^7 cells/mL, 18 J/cm^2
  long term repopulating (LTR) ability / survival of the pluripotent stem cells: not affected by the photoinactivation procedure; also recorded: no adverse affect
[1]; pilot, lethally irradiated (8.5 Gy), 70,000 untreated or treated donor BM cells
  mortality: All mice that received 70,000 cells died within one month
[1]; pilot, lethally irradiated (8.5 Gy), 250,000 donor cells (untreated or treated 15 nM, 1.5×10^7 cells/mL, 18 J/cm2), after 4 months, most mice
  Ly-5.1 chimerism in peripheral blood granulocytes, T cells and B cells: > 70%
[1]; six months, 18 J/cm^2
  difference in chimerism levels from untreated BM group: not significant
[1]; six months, 250,000 BM cells, 18 J/cm^2, untreated BM 0.49±0.01 (p=0.42)
  chimerism level, granulocytes: 0.38±0.08
[1]; six months, 250,000 BM cells, 18 J/cm^2, untreated BM 0.50±0.12 (p=0.53)
  chimerism level, B cells: 0.39±0.11
[1]; six months, 250,000 BM cells, 18 J/cm^2, untreated BM 0.72±0.07 (p=0.42)
  chimerism level, T cells: 0.60±0.12
[1]; Pc 4, 0 J/cm^2
  mice died two months after transplant: 1/6
[1]; Pc 4, 6 J/cm^2
  mice died two months after transplant: 1/6
[1]; Pc 4, 18 J/cm^2
  mice died two months after transplant: 1/6
[2]; [7]
  Pc 4 content: 109 ± 6.5 Mean fluorescence/cell
  Pc 4 content per cell volume: 0.50 Mean fluorescence/μm^3
[2]; [8]
  Pc 4 content: 54 ± 6.9 Mean fluorescence/cell
  Pc 4 content per cell volume: 0.23 Mean fluorescence/μm^3
[2]; 1.5×10^7 cells/mL (p=0.26)
  difference in Pc 4 content, pluripotent stem cells vs committed progenitors: not significant
[3]; [9]
  Pc 4 content: 136 ± 7.8 Mean fluorescence/cell
  Pc 4 content per cell volume: 0.44 Mean fluorescence/μm^3
[3]; [10]
  Pc 4 content: 68 ± 8.2 Mean fluorescence/cell
  Pc 4 content per cell volume: 0.22 Mean fluorescence/μm^3
[3]; 15 nM, BM progenitor cells
  cell concentration at which uptake reached a plateau: 8.0×10^5 cells/mL
[3]; 1.5×10^7 cells/mL (p=0.07)
  difference in Pc 4 content, committed progenitors vs ABE-8.1/2: not quite significant
[3]; 1.5×10^7 cells/mL (p=0.29)
  difference in Pc 4 content, committed progenitors vs BC3A: not significant
[3]; BM progenitors, from 8.0×10^5 to 1.5×10^7 cells/mL
  reduction of Pc 4 uptake: 1.8 fold
[4]; BM/WEHI-3, BM fraction 0.50
  Pc 4 content in cell line: 106 Mean fluorescence/cell
[4]; BM/WEHI-3, BM fraction 0.70
  Pc 4 content in cell line: 140 Mean fluorescence/cell
[4]; BM/WEHI-3, BM fraction 0.80
  Pc 4 content in cell line: 164 Mean fluorescence/cell
[4]; BM/WEHI-3, BM fraction 0.90
  Pc 4 content in cell line: 204 Mean fluorescence/cell
[4]; BM/WEHI-3, BM fraction 0.95
  Pc 4 content in cell line: 229 Mean fluorescence/cell
[4]; versus 1.5×10^7 cells/mL without BM
  Pc 4 uptake in mixtures versus cell line alone: contained more Pc 4
[5]
  photoinactivation of parasites: effectively photoinactivate
[6]
  photoinactivation of V79 cells: effectively photoinactivate
